# Like-named read-outs stand apart in the source and are kept apart here.
# How the values were obtained:
# Urinary recovery in rats = format: in vivo; settings: rat, urine, sc 10 mg./kg., 0-24 Hrs.
# S. aureus = assay: MIC by Steers' agar dilution method; format: cell-based; settings: Staphylococcus aureus
# S. pyogenes = assay: MIC by Steers' agar dilution method
# P. stuartii = assay: MIC by Steers' agar dilution method; settings: Providencia stuartii
# Ps. aeruginosa = assay: MIC by Steers' agar dilution method; settings: Pseudomonas aeruginosa
smiles,measurement,setting,value
"O=C(O)Cn1nc2ccc(SCC3=C(C(=O)O)N4C(=O)C(NC(=O)[C@H](O)c5ccccc5)[C@H]4SC3)nn2c1=O (stereo partly drawn) [BB-S488, 7-(D-Mandelamido)-3-(2-carboxymethyl-2,3-dihydro-s-triazolo[4,3-b]pyridazin-3-on-6-ylthiomethyl)-3-cephem-4-carboxylic Acid]",dose excreted at 24 h,Urinary recovery in rats,38.8%
same,MIC,"S. aureus; A9497, MHA, Table 1",0.1 µg/mL
same,MIC,"S. aureus; BX-1633, MHA, Example 10",3.1 µg/mL
same,MIC,"S. aureus; BX-1633 A9606, MHA, Table 1",0.4 µg/mL
same,MIC,"S. aureus; Sa-2 Smith A9537, HIA, Table 4",0.8 µg/mL
same,MIC,"S. aureus; Sa-2 Smith A9537, MHA, Table 2",0.4 µg/mL
same,MIC,"S. aureus; Sa-2 Smith A9537, MHA, Table 4",0.8 µg/mL
same,MIC,"S. aureus; Sa-2 Smith A9537, NA, Table 4",0.8 µg/mL
same,MIC,"S. aureus; Sa-3 No. 193, MHA, Table 2",0.8 µg/mL
same,MIC,"S. aureus; Sa-8, MHA, Table 2",0.4 µg/mL
same,MIC,"S. aureus; Sa-9 No. 193, MHA, Table 2",0.8 µg/mL
same,MIC,"S. aureus; Sa-10 A20239, MHA, Table 2",1.6 µg/mL
same,MIC,"S. aureus; Sa-11 BX-1633 A9606 (β-lactamase), HIA, Table 4",1.6 µg/mL
same,MIC,"S. aureus; Sa-11 BX-1633 A9606 (β-lactamase), MHA, Table 4",0.8 µg/mL
same,MIC,"S. aureus; Sa-11 BX-1633 A9606 (β-lactamase), NA, Table 4",3.1 µg/mL
same,MIC,"S. aureus; Sa-11 BX-1633 A9606, MHA, Table 2",0.4 µg/mL
same,MIC,"S. aureus; Sa-12 A9497, MHA, Table 2",0.2 µg/mL
same,MIC,"S. aureus; Sa-29 No. 193, MHA, Table 2",1.6 µg/mL
same,MIC,"S. aureus; Sa-33 Terajima, MHA, Table 2",0.0125 µg/mL
same,MIC,"S. aureus; Sa-34 A15092, MHA, Table 2",0.8 µg/mL
same,MIC,"S. aureus; Sa-35 A15094, MHA, Table 2",0.8 µg/mL
same,MIC,"S. aureus; Sa-36 Russell, MHA, Table 2",0.8 µg/mL
same,MIC,"S. aureus; Sa-37 A9524, MHA, Table 2",1.6 µg/mL
same,MIC,"S. aureus; Sa-38 A9534, MHA, Table 2",0.4 µg/mL
same,MIC,"S. aureus; Sa-39 A9578, MHA, Table 2",0.8 µg/mL
same,MIC,"S. aureus; Sa-40 A9601, MHA, Table 2",0.8 µg/mL
same,MIC,"S. aureus; Sa-41 A9602, MHA, Table 2",0.8 µg/mL
same,MIC,"S. aureus; Sa-44 A15097, HIA, Table 4",> 100 µg/mL
same,MIC,"S. aureus; Sa-44 A15097, MHA, Table 2",25 µg/mL
same,MIC,"S. aureus; Sa-44 A15097, MHA, Table 4",100 µg/mL
same,MIC,"S. aureus; Sa-44 A15097, NA, Table 4",> 100 µg/mL
same,MIC,"S. aureus; Sa-56 A9630, MHA, Table 2",3.1 µg/mL
same,MIC,"S. aureus; Sa-57 A9748, MHA, Table 2",25 µg/mL
same,MIC,"S. aureus; Sa-58 A15033, MHA, Table 2",12.5 µg/mL
same,MIC,"S. aureus; Sa-59 A15096, MHA, Table 2",100 µg/mL
same,MIC,"S. aureus; Sa-60 A20604, MHA, Table 2",50 µg/mL
same,MIC,"S. aureus; Sa-61 A20605, MHA, Table 2",100 µg/mL
same,MIC,"S. aureus; Sa-62 A20606, MHA, Table 2",3.1 µg/mL
same,MIC,"S. aureus; Sa-63 A20607, MHA, Table 2",> 100 µg/mL
same,MIC,"S. aureus; Sa-64 A20608, MHA, Table 2",100 µg/mL
same,MIC,"S. aureus; Sa-65 A20609, MHA, Table 2",100 µg/mL
same,MIC,"S. aureus; Sa-66 A20610, MHA, Table 2",100 µg/mL
same,MIC,"S. aureus; Sa-67 A20611, MHA, Table 2",100 µg/mL
same,MIC,"S. aureus; Sa-68 A20612, MHA, Table 2",1.6 µg/mL
same,MIC,"S. aureus; Sa-69 A20613, MHA, Table 2",100 µg/mL
same,MIC,"S. aureus; Smith A9537, MHA, Table 1",0.2 µg/mL
same,MIC,"S. aureus; Smith, MHA, Example 10",0.8 µg/mL
same,MIC,"S. aureus; strain not named, MHA, Example 10",0.4 µg/mL
same,MIC,S. pyogenes,0.2 µg/mL
same,MIC,"S. pyogenes; Sp-2 Dick, MHA, Table 2",0.4 µg/mL
same,MIC,"S. pyogenes; Sp-3 A9604, MHA, Table 2",0.4 µg/mL
same,MIC,"S. pyogenes; Sp-5 A15040, MHA, Table 2",0.4 µg/mL
same,MIC,"S. pyogenes; Sp-6 A20066, MHA, Table 2",0.4 µg/mL
same,MIC,"S. pyogenes; Sp-7 Dig 7, MHA, Table 2",0.4 µg/mL
same,MIC,"S. pyogenes; Sp-8 A15041, MHA, Table 2",0.4 µg/mL
same,MIC,"S. pyogenes; Sp-9 A20201, MHA, Table 2",0.4 µg/mL
same,MIC,"S. pyogenes; Sp-10 A20202, MHA, Table 2",0.4 µg/mL
same,MIC,S. pyogenes; Streptococcus pyogenes,0.4 µg/mL
same,MIC,"P. stuartii; Ps-1 A20745, HIA, Table 4",50 µg/mL
same,MIC,"P. stuartii; Ps-1 A20745, MHA, Table 3",0.4 µg/mL
same,MIC,"P. stuartii; Ps-1 A20745, MHA, Table 4",12.5 µg/mL
same,MIC,"P. stuartii; Ps-1 A20745, NA, Table 4",50 µg/mL
same,MIC,"P. stuartii; Ps-2 A20894, HIA, Table 4",0.4 µg/mL
same,MIC,"P. stuartii; Ps-2 A20894, MHA, Table 3",0.2 µg/mL
same,MIC,"P. stuartii; Ps-2 A20894, MHA, Table 4",0.2 µg/mL
same,MIC,"P. stuartii; Ps-2 A20894, NA, Table 4",0.8 µg/mL
same,MIC,"P. stuartii; Ps-3 A20911 (β-lactamase), HIA, Table 4",25 µg/mL
same,MIC,"P. stuartii; Ps-3 A20911 (β-lactamase), MHA, Table 4",12.5 µg/mL
same,MIC,"P. stuartii; Ps-3 A20911 (β-lactamase), NA, Table 4",50 µg/mL
same,MIC,"P. stuartii; Ps-3 A20911, MHA, Table 3",0.8 µg/mL
same,MIC,"P. stuartii; Ps-4 A21051, MHA, Table 3",50 µg/mL
same,MIC,"P. stuartii; Ps-5 A21057, MHA, Table 3",0.2 µg/mL
same,MIC,"Ps. aeruginosa; A9843, MHA, Table 1",> 100 µg/mL
same,MIC,"Ps. aeruginosa; A9930, MHA, Table 1",> 100 µg/mL
same,MIC,"Ps. aeruginosa; Pa-3 A9930, HIA, Table 4",> 100 µg/mL
same,MIC,"Ps. aeruginosa; Pa-3 A9930, MHA, Table 4",> 100 µg/mL
